Key:
[1] = Toxicity of increasing doses in the drinking water
[2] = aging mice (18 month-old mice) compared with young, e.g. three month-old mice; cited from earlier work
[3] = 2 months treatment, blood levels of cholesterol and triglycerides in old mice (Table 9); format: in vivo, BALB/cJ female mice; conditions: 2 months treatment started in 20-month-old female mice, n = 10, dosages as for Table 7
Source text: Evidence that the lipid related compounds whose proportions in the blood circulation of old mice have a cause different from those observed in young mice treated with TRH seems further indicated by the fact that the weight of 16 month-old female mice, thus older mice which tend to accumulate age-related adiposity, can also be controlled and even reduced by the adsorption of TRH (see table 8). Indeed the contents in lipid-related compounds in the blood circulation of older mice (20 month-old mice) treated with TRH remain substantially unaltered, as evidenced by the results shown in Table 9 hereafter. The dosages of TRH were the same as in the assay reported in relation to Table 7.

[4] = test system: anterior hypothalamic area (AHA)-lesioned obese mice; experiment: 48-day intraperitoneal treatment of AHA-lesioned obese mice, body weight (Table 5); format: in vivo, C57BL/6 female mice; conditions: N=4, Mean ± SD
Procedure: C57BL/6 female mice aged 8 months (AHA-lesioned at 2 months of age to induce obesity), were injected intraperitoneally for 48 days at 6 pm (evening) with 0.5 ml volume containing 10 µg TRH-tartrate in bidistilled water. Controls were injected with the same amount of diluent.

[5] = test system: old female mice; experiment: Chronic oral administration in drinking water, aging-related adiposity, body weight (Table 8); format: in vivo, BALB/cJ X C57BL/6 F1 female mice; conditions: n=15, Mean ± SD
Source text: With other words, progressive alteration of pineal-hypothalamic-pituitary-peripheral endocrine glands function in the course of aging leads to the most typical appearance of decreased tolerance to glucose (hyperglycemia), increased levels of lipids, in particular triglycerides and cholesterol (hyperlipidemia) and progressive accumulation of fat, which is not obesity but the most common expression of hormonal derangements. TRH taken chronically will maintain normal body weight in normal aging mice, while the normal controls put on fat and weight.
The results reported in Table 8 clearly support the presumption that TRH is also capable of preventing onset of aging-related adiposity in humans.

[6] = test system: obese, anterior hypothalamic area (AHA)-lesioned mice; experiment: 20-day intraperitoneal treatment of obese AHA-lesioned mice, body weight (Table 3); format: in vivo, C57BL/6 male mice; conditions: N=6, Mean ± SD; for Body weight (g): p<0.05 vs before treatment
Procedure: C57BL/6 male mice aged 7 months (AHA-lesioned at 2 months of age to induce obesity), were injected intraperitoneally for 20 days at 6 pm (evening) with 0.5 ml volume containing 10 µg TRH-tartrate in bidistilled water. Controls were injected with the same amount of diluent.

[7] = 20-day intraperitoneal treatment, blood levels of T3, T4 and TSH by radioimmunoassay in serum (Table 7); format: in vivo, C57BL/6 male mice; conditions: for T3 / T4 / TSH (µU/mL): serum, Mean ± SD
Procedure: This is shown by Table 7 hereafter which report the results of assays which were ran under the following conditions.
C57BL/6 male mice aged 9 months, were injected intraperitonealy for 20 days at 6 p.m. (evening) or at 8 a.m. (morning) with 0.5 ml volumes containing either 10 µg or 100 µg of TRH in bidistilled water. Controls were injected with the same amount of diluent. The mice were bled from the retroorbital venus plexus under rapid acute ether anaesthesia at 10 a.m. T3, T4 and TSH were measured by radioimmunoassay in the serum of individual mice. TABLE 7: […]

[8] = TRH evening (6 p.m.) 10 µg i.p. for 20 days
[9] = TRH evening (6 p.m.) 100 µg i.p. for 20 days
[10] = TRH morning (8 a.m.) 10 µg i.p. for 20 days
[11] = TRH morning (8 a.m.) 100 µg i.p. for 20 days

Molecule: COc1ccc2[nH]cc(CCNC(C)=O)c2c1 [melatonin]
- toxicity [1]: not toxic

Molecule: (pyro)Glu-His-Pro NH2 [TRH]
- levels of cholesterol, triglycerids and phospholipids [2]: brought back to values currently observed in young mice
- CHOLESTEROL [3]: 1.65 ± 0.29 mmol/L
- TRIGLYCERIDES [3]: 1.19 ± 0.46 mmol/L
- Body weight ([4]; After 27 days of treatment, 10 µg TRH-tartrate i.p. daily at 6 pm): 39.2 ± 7.2 g
- Body weight (g) ([4]; After 48 days of treatment, 10 µg TRH-tartrate i.p. daily at 6 pm, p<0.05 vs before treatment): 32.6 ± 4.4^∗ g
- Body weight ([4]; Before treatment, AHA-lesioned female mice aged 8 months): 42.2 ± 6.4 g
- Body weight (g) before treatment ([5]; 16 month-old female mice): 33.1 ± 3.2 (15) g
- Body weight (g) after treatment ([5]; TRH-tartrate in the drinking water (100µg/ml) for 5 months, started at 16 months of age): 33.8 ± 4.0 (15) g
- Body weight ([6]; After 10 days of treatment, 10 µg TRH-tartrate i.p. daily at 6 pm): 33.7 ± 4.2 g
- Body weight (g) ([6]; After 20 days of treatment, 10 µg TRH-tartrate i.p. daily at 6 pm): 32.0 ± 3.6^∗ g
- Body weight (g) ([6]; After withdrawal period of 5 days following 20-day treatment): 31.1 ± 3.4^∗ g
- Body weight ([6]; After withdrawal period of 60 days following 20-day treatment): 38.3 ± 5.9 g
- Body weight ([6]; Before treatment, AHA-lesioned male mice aged 7 months): 39.0 ± 6.2 g
- T3 [7, 8]: 0.82 ± 0.08 nmol/L
- T4 [7, 8]: 65.7 ± 4.2 nmol/L
- TSH (µU/mL) [7, 8]: 0.005 ± 0.004 µU/mL
- T3 [7, 9]: 0.91 ± 0.02 nmol/L
- T4 [7, 9]: 68.7 ± 13.1 nmol/L
- TSH (µU/mL) [7, 9]: 0.004 ± 0.005 µU/mL
- T3 [7, 10]: 1.03 ± 0.07 nmol/L
- T4 [7, 10]: 82.0 ± 1.9 nmol/L
- TSH (µU/mL) [7, 10]: 0.009 ± 0.006 µU/mL
- T3 [7, 11]: 0.84 ± 0.02 nmol/L
- T4 [7, 11]: 74.9 ± 13.3 nmol/L
- TSH (µU/mL) [7, 11]: 0.007 ± 0.005 µU/mL
- acute toxicity ([7]; injected at huge dosages (up to 100 µg i.p. for 20 days)): lack of acute toxicity

Source: patent publication EP1097716A1, “Dietary anti-adiposity food supplements and drugs based on thyrotropin-releasing hormone (TRH)” (Chronolife Inc., priority 1999, dated 2001)
